Test results published in publication PMC4368888, “Preclinical to Clinical Translation of CNS Transporter Occupancy of TD-9855, a Novel Norepinephrine and Serotonin Reuptake Inhibitor” (International Journal of Neuropsychopharmacology, 2015).

How the values were obtained:
rat native DAT = target: T1, rat native DAT (Rattus norvegicus, UniProt P23977); test: [3H]-DA uptake inhibition in rat striatal synaptosomes; format: biochemical; details: mean (95% CI), 3 to 9 experiments, read-out: Neurotransmitter Uptake Inhibition: pIC50 DAT (converted)
T1 construct: at human recombinant and rat native monoamine transporters; from tissue; host or cells: rat striatal synaptosomes
T1 sequence (P23977 whole entry): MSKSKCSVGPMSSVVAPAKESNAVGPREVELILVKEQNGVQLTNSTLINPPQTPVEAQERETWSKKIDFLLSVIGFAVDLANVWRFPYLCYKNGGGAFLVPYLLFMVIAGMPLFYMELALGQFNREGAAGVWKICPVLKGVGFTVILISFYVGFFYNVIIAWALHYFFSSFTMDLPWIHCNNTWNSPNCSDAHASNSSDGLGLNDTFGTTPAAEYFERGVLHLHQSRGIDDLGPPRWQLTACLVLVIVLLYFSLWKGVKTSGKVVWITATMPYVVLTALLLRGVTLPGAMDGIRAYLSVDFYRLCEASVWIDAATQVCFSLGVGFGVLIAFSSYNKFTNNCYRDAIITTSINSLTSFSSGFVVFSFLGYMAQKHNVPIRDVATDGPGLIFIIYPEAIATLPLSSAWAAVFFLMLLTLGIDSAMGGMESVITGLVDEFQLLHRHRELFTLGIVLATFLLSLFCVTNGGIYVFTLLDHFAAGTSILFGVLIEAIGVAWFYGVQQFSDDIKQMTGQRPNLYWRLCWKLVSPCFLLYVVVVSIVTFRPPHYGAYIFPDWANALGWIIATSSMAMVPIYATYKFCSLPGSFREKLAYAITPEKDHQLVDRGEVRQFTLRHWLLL
From the text: (§1) The in vitro pharmacology of TD-9855 (4-[2-(2, 4, 6-trifluorophenoxymethyl)phenyl]piperidine; Figure 1) at human recombinant and rat native monoamine transporters was characterized as described previously ([Tsuruda et al., 2010]; [Shen et al., 2013]). Radioligands were sourced commercially (Perkin Elmer Life Sciences or GE Healthcare Life Sciences). Briefly, membranes prepared from HEK293 (Human Embryonic Kidney 293) cells stably-transfected with human recombinant SERT (HEK293-hSERT), NET (HEK293-hNET), or DAT ([…]) were incubated for 1hr at 22°C in the absence, or presence, of TD-9855 and [^3H]-citalopram (1.0nM) for SERT, [^3H]-nisoxetine (2.0nM) for NET, and [^3H]-WIN35428 (3.0nM) for DAT in 50mM Tris-HCl, 120mM NaCl, 5mM KCl, 0.025% BSA, 100 μM ascorbic acid, pH 7.4. Rat cortical membrane preparations were incubated with [^3H]-citalopram (2.0nM) for SERT or [^3H]-nisoxetine (4.0nM) for NET for 1hr at 22°C. […] Binding and uptake assays were terminated by rapid filtration and radioactivity, determined by liquid scintillation spectroscopy.

human recombinant DAT = target: T2, human recombinant DAT (Homo sapiens, UniProt Q01959); test: [3H]-WIN35428 equilibrium binding, CHO-K1-hDAT membranes; details: mean (95% CI), 3 to 9 experiments, read-out: Transporter Binding: pKi DAT (converted)
T2 construct: expressed in transfected cells; 'hDAT cells' for uptake
T2 sequence (Q01959 whole entry): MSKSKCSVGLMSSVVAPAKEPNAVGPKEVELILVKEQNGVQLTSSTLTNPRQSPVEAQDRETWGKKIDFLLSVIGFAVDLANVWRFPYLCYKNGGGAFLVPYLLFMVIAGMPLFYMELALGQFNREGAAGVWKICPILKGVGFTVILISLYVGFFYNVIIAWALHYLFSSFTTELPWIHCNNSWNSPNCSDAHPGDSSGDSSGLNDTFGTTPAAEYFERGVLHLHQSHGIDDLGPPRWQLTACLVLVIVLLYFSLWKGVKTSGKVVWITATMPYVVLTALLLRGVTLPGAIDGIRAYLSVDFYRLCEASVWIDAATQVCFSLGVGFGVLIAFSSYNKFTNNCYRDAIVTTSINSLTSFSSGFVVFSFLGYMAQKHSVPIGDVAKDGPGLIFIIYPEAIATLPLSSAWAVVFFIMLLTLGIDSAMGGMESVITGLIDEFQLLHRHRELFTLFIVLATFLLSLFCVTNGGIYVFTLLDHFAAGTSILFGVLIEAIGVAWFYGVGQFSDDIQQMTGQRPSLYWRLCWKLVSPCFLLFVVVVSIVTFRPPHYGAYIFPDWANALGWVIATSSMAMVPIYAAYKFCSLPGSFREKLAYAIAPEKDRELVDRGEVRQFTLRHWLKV
From the text: as §1

rat native SERT = target: T3, rat native SERT (Rattus norvegicus, UniProt P31652); test: [3H]-citalopram binding, rat cortical membranes; details: mean (95% CI), 3 to 9 experiments, read-out: Transporter Binding: pKi SERT (converted)
T3 construct: at human recombinant and rat native monoamine transporters; from tissue
T3 sequence (P31652 whole entry): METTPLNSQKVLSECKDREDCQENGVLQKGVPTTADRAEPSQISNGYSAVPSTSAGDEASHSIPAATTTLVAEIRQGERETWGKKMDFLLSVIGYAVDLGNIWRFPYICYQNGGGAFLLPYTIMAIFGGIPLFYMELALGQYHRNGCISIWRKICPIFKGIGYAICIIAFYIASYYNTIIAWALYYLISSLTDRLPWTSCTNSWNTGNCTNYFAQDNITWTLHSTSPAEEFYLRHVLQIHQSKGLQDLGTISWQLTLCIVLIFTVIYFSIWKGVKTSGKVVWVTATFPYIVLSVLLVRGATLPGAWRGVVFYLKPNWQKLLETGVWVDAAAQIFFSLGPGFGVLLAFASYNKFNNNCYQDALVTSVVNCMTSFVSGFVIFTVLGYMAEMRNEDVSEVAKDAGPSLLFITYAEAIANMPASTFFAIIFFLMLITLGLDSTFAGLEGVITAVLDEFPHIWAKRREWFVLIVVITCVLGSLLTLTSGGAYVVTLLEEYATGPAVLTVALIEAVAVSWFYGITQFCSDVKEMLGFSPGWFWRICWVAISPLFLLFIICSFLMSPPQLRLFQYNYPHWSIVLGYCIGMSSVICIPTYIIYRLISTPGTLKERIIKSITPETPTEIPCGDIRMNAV
From the text: as §1

in vivo = details: Sprague Dawley, rat, po
Experimental: TD-9855 Rat Administration and Sampling — Rats (n = 6/timepoint/dose level) received a single oral dose of TD-9855 (0.3, 1, 5, 10, 30, and 60mg/kg) and were euthanized by decapitation at specified time points (0.5, 2, 4, 6, and 8hr for 5mg/kg dose level; 2hr for 0.3, 1, 10, 30, and 60mg/kg dose levels) post-administration. Spinal cords were dissected for ex vivo transporter occupancy and PK assessments from the same animals. The spinal cord was harvested by hydraulic extrusion using phosphate-buffered saline, and the lumbar segment dissected and frozen on dry ice. The remaining spinal cord segments were collected and homogenized in water (25% w/w) for PK analysis. All samples were stored at -80 °C until analysis.
Rat PK/PD Modeling — PK/PD parameters were estimated by a compartmental modeling approach (WinNonlin Version 5.0.1, Pharsight Corporation). One- and two-compartment PK models with first-order absorption and elimination were evaluated. The one-compartment model was selected. The pharmacodynamic model was an effect compartment Emax model linked directly to the central PK compartment (WinNonlin PK Model 3, PD Model 101). Selection of models was based upon best fit in terms of visual inspection, Akaike Information Criteria, and weighted residual sum of squares using the Gauss-Newton minimization method. The following parameters were estimated:
k01 (hr^-1): First-order absorption rate constant.
V/F (L/kg): Volume of the central compartment divided by oral bioavailability
k10 (hr^-1): Elimination rate constant from the central compartment

[1] = Human plasma pharmacokinetics; format: in vivo; details: 20mg single oral dose, Day 1, n = 3
Experimental: Four 6mL samples were drawn at 2, 4, 6, and 24hr post TD-9855 dosing. Three additional 6mL samples were drawn prior to each PET scan and approximately 60 and 120min after the beginning of each PET scan. Plasma samples were analyzed for TD-9855 concentrations by a validated LC-MS/MS method. The lower limit of quantification for TD-9855 was 0.05ng/mL.

[2] = human, data on file, cited from earlier work
[3] = set-up: method as in Theravance Biopharma US, Inc., data on file; details: rat; ref Theravance Biopharma US, Inc., data on file; cited from earlier work
P-gp = system: P-gp; set-up: method as in Theravance Biopharma US, Inc., data on file; details: ref Theravance Biopharma US, Inc., data on file; cited from earlier work
NET [4] = target: T4, NET (Homo sapiens, UniProt P23975); test: [3H]-NE uptake inhibition in HEK293-hNET cells; format: cell-based; set-up: expressed in transfected cells; host or cells: HEK293 (HEK293-hNET), stably transfected
T4 sequence (P23975 whole entry): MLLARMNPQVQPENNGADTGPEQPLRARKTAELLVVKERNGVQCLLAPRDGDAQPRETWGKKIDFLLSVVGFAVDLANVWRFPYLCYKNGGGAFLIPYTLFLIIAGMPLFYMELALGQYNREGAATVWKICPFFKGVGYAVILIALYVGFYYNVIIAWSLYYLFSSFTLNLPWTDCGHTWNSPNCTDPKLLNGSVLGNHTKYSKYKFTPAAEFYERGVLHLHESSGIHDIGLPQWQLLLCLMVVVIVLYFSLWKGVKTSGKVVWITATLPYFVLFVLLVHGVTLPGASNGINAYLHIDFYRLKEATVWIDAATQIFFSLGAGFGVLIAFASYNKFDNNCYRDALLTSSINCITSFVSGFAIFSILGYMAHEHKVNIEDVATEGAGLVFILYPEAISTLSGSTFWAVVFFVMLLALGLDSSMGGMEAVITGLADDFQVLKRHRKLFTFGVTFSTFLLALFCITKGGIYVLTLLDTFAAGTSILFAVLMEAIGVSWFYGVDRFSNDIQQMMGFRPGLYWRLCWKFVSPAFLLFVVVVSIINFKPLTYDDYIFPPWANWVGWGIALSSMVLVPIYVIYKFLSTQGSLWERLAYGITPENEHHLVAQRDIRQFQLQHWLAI
From the text: as §1

NET [5] = target: T4, NET; test: [3H]-nisoxetine equilibrium binding, HEK293-hNET membranes; set-up: expressed in transfected cells; host or cells: HEK293 (HEK293-hNET), stably transfected; details: mean (95% CI), 3 to 9 experiments, read-out: Transporter Binding: pKi NET (converted)
From the text: as §1

SERT = SERT (Homo sapiens, UniProt P31645); test: [3H]-citalopram equilibrium binding, HEK293-hSERT membranes; set-up: expressed in transfected cells; host or cells: HEK293 (HEK293-hSERT), stably transfected; details: mean (95% CI), 3 to 9 experiments, read-out: Transporter Binding: pKi SERT (converted)
Chain of SERT (P31645 whole entry): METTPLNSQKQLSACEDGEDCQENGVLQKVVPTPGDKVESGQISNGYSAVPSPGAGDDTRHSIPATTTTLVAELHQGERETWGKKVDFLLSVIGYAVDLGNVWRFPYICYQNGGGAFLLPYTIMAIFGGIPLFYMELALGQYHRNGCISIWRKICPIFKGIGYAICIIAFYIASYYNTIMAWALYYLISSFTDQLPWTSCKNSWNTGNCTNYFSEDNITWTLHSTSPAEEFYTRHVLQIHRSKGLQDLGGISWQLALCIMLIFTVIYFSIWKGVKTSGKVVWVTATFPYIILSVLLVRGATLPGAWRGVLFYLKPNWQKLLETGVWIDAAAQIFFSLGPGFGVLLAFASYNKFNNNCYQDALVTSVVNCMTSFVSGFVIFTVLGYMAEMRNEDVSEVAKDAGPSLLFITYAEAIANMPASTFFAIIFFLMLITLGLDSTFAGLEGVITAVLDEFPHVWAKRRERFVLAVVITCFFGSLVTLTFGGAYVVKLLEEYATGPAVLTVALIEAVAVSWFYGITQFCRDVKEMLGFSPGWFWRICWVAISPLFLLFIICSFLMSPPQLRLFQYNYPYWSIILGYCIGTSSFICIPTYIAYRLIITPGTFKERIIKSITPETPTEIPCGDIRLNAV
From the text: as §1

## Fc1cc(F)c(OCc2ccccc2C2CCNCC2)c(F)c1 [TD-9855, 4-[2-(2,4,6-trifluorophenoxymethyl)phenyl]piperidine]
Rat native DAT
  IC50: 126 nM
Human recombinant DAT
  Ki: 200 nM
Rat native SERT
  Ki: 3.16 nM
In vivo
  K01, first-order absorption rate constant: 0.777 (108) hr^-1
  V/F: 54.8 (66) L/kg
  k el: 8.86e-05 s⁻¹
[1]
  mean plasma concentration at SERT scan: 6.35 ng/mL
[2]; ascending single dose studies, ref Theravance Biopharma US, Inc.
  Tmax: 6 to 12 h
[2]; ref Theravance Biopharma US, Inc.
  pharmacokinetic (plasma) half-life: 30 to 40 h
[2]; ref Theravance
  accumulation in plasma after repeated administration: 3- to 4 fold
[3]
  plasma protein binding: 90.2%
P-gp
  P-gp substrate status: non-P-gp substrate
NET [4]; human transporters, neurotransmitter uptake
  selectivity for inhibition of NET over SERT: 4 fold
NET [4]; uptake in vitro, human and rat transporters
  inhibitory selectivity for NE: 4- to 10 fold
NET [5]
  Ki: 1.58 nM
SERT
  Ki: 3.16 nM
